≈ marks a conversion by molar mass, not a printed value. Where “and” joins values, the source holds several entries; their conditions need not be identical. Identical values can stand only once. Like-named read-outs stand apart in the source and are kept apart here.

Assay [1] relates to M. kansasii CNCTC My 235/80 (ATCC 12478). The assay can be described thus: Antimycobacterial microdilution MABA, M. kansasii. The class given is cell-based, Mycobacterium kansasii. Particulars: for M. kans. ATCC 12478 MIC: Middlebrook 7H9 with OADC, pH 6.6, MABA.
In assay [2] the test system is Mycobacterium tuberculosis H37Rv CNCTC My 331/88 (ATCC 27294). The assay can be described thus: Antimycobacterial microdilution MABA, M. tuberculosis. The class given is cell-based. Particulars: Middlebrook 7H9 with OADC growth supplement, pH = 6.6, MABA. (Broth dilution looks for growth in wells or tubes with falling amounts of substance.)
Assay [3] concerns M. avium ssp. avium CNCTC My 80/72 (ATCC 15769). The assay can be described thus: Antimycobacterial microdilution MABA, M. avium. The class given is cell-based, Mycobacterium avium.
Assay [4] deals with Staphylococcus aureus H 5996/08 methicillin resistant. The assay can be described thus: microbe, parasite or virus in culture. The class given is cell-based. To be noted: for MIC: Staphylococcus aureus, MRSA, read-out: MIC MRSA.
Assay [5] relates to Pseudomonas aeruginosa CCM 1961. The assay can be described thus: Antibacterial microdilution broth, PA. To be noted: read-out: MIC PA. The class given is cell-based.
Assay [6] relates to Staphylococcus aureus CCM 4516/08. The assay can be described thus: Antibacterial microdilution broth, SA. The class given is cell-based. Particulars: read-out: MIC SA.
Assay [7] concerns Escherichia coli CCM 4517. The assay can be described thus: Antibacterial microdilution broth, EC. The class given is cell-based. To be noted: read-out: MIC EC.
The subject of assay [8] is Staphylococcus epidermidis H 6966/08. The assay can be described thus: Antibacterial microdilution broth, SE. The class given is cell-based. Particulars: read-out: MIC SE.
Assay [9] has as its system Enterococcus sp. J 14365/08. The assay can be described thus: Antibacterial microdilution broth, EF. The class given is cell-based. To be noted: read-out: MIC EF.
The subject of assay [10] is Mycobacterium smegmatis CCM 4622 (ATCC 607). The assay can be described thus: Antimycobacterial microdilution, M. smegmatis. The class given is cell-based. Particulars: Middlebrook 7H9 with OADC, resazurin.

As to `NNC(=O)c1ccncc1` [INH, isoniazid, reference compound], in assay [1], the “M. kans. ATCC 12478 MIC” value fell in the range of 6.25 to 12.5 µg/mL. Besides, the MIC in assay [1] (Mycobacterium kansasii, ATCC12478, pH 6.6, read-out: M. kans. ATCC 12478 MIC, Middlebrook 7H9 with OADC, pH 6.6, MABA) was in the range of 3.13 to 12.5 µg/mL (≈ 22.8 to 91.1 µM); in assay [2] (Mycobacterium tuberculosis, read-out: Mtb H37Rv ATCC 27294 MIC), 0.1 to 0.2 µg/mL (≈ 0.729 to 1.46 µM); in assay [3] (Mycobacterium avium, ATCC15769, pH 6.6, read-out: M. avium ATCC 15769 MIC), 6.25 to 12.5 µg/mL (≈ 45.6 to 91.1 µM). Moreover, the “Mtb H37Rv ATCC 27294 MIC” value in assay [2] fell in the range of 0.1 to 0.39 µg/mL.

As to `NC[C@@H]1O[C@H](O[C@H]2[C@@H](O)[C@H](O[C@@H]3[C@@H](O)[C@H](N)C[C@H](N)[C@H]3O[C@H]3O[C@H](CN)[C@@H](O)[C@H](O)[C@H]3N)O[C@@H]2CO)[C@H](N)[C@@H](O)[C@@H]1O` [Neom, neomycin, reference compound], the “MIC MRSA” value in [4] (24 h) and in [4] (48 h) was 0.98 µM (≈ 0.602 µg/mL) in each case. The MIC is 7.81 µM (≈ 4.8 µg/mL) in assay [5] (72 h); 15.62 µM (≈ 9.6 µg/mL) in [5] (120 h); 3.9 µM and 3.90 µM in assay [6] (24 h); 3.9 µM and 3.90 µM in [6] (48 h); 0.98 µM (≈ 0.602 µg/mL) in [7] (24 h); 0.98 µM (≈ 0.602 µg/mL) in assay [7] (48 h). For the same molecule, the MIC is 3.9 µM and 3.90 µM in [8] (24 h); 7.81 µM (≈ 4.8 µg/mL) in [8] (48 h); 250 µM (≈ 154 µg/mL) in assay [9] (24 h); 250 µM (≈ 154 µg/mL) in assay [9] (48 h).

Take `CO[C@H]1/C=C/O[C@@]2(C)Oc3c(C)c(O)c4c(O)c(c(/C=N/N5CCN(C)CC5)c(O)c4c3C2=O)NC(=O)/C(C)=C\C=C\[C@H](C)[C@H](O)[C@@H](C)[C@@H](O)[C@@H](C)[C@H](OC(C)=O)[C@@H]1C` [RFM, rifampicin, reference compound]: the “M. smeg. ATCC 607 MIC” value in assay [10] was 1.56 µg/mL. In addition, the MIC in assay [10] (Mycolicibacterium smegmatis, read-out: M. smeg. ATCC 607 MIC) fell in the range of 0.78 to 1.56 µg/mL (≈ 0.948 to 1.9 µM).

On to bacitracin [reference compound], for which the “MIC MRSA” value is given as 15.62 µM in [4] (24 h) and 31.25 µM in assay [4] (48 h). The MIC in assay [5] (72 h) is recorded as > 500 µM; in assay [5] (120 h) it was > 500 µM; in assay [6] (24 h), 15.62 µM; in [6] (48 h), 31.25 µM; in assay [7] (24 h) it was > 500 µM; in assay [7] (48 h) it was > 500 µM. Moreover, the MIC is recorded as 15.62 µM in [8] (24 h), 31.25 µM in assay [8] (48 h), 31.25 µM in assay [9] (24 h) and 31.25 µM in assay [9] (48 h).

As to `CC1(C)S[C@@H]2[C@H](NC(=O)COc3ccccc3)C(=O)N2[C@H]1C(=O)O` [Phen, phenoxymethylpenicillin, reference compound], the MIC in assay [4] (24 h) was 250 µM (≈ 87.6 µg/mL); in assay [4] (48 h) it was 500 µM (≈ 175 µg/mL); in [5] (Pseudomonas aeruginosa, CCM1961, 72 h), > 500 µM; in assay [5] (Pseudomonas aeruginosa, CCM1961, 120 h), > 500 µM; in assay [6] (Staphylococcus aureus, CCM4516, 24 h), 0.24 µM (≈ 0.0841 µg/mL); in [6] (Staphylococcus aureus, CCM4516, 48 h), 0.24 µM (≈ 0.0841 µg/mL). Also, the MIC is > 500 µM in [7] (Escherichia coli, CCM4517, 24 h); > 500 µM in assay [7] (Escherichia coli, CCM4517, 48 h); 62.5 µM (≈ 21.9 µg/mL) in assay [8] (Staphylococcus epidermidis, H6966/08, 24 h); 250 µM (≈ 87.6 µg/mL) in [8] (Staphylococcus epidermidis, H6966/08, 48 h); 7.81 µM (≈ 2.74 µg/mL) in [9] (Enterococcus, SP.J14365/08, 24 h); 7.81 µM (≈ 2.74 µg/mL) in assay [9] (Enterococcus, SP.J14365/08, 48 h).

As to `O=C(Nc1cncc(Cl)n1)c1ccccc1O` [Compound 3b], the “M. smeg. ATCC 607 MIC” value in assay [10] is given as 250 µg/mL. Further, in assay [1], the “M. kans. ATCC 12478 MIC” value is > 100 µg/mL. For the same molecule, the “Mtb H37Rv ATCC 27294 MIC” value in assay [2] was > 100 µg/mL. Besides, the “M. avium ATCC 15769 MIC” value in assay [3] (Middlebrook 7H9 with OADC, pH 6.6, MABA) is on record as > 100 µg/mL.

Source of the values: paper PMC6225228, “Design, Synthesis and Evaluation of N-pyrazinylbenzamides as Potential Antimycobacterial Agents” (Molecules : A Journal of Synthetic Chemistry and Natural …, 2018).
